One compound from ChEMBL document CHEMBL1649204, “Evaluation of analogs of reutericyclin as prospective candidates for treatment of staphylococcal skin infections” (Antimicrob Agents Chemother, 2009) can be followed below.

As usually defined, the MIC50 is the lowest concentration that inhibits either 50% of growth or 50% of the strains tested, depending on the study. The term MIC90 denotes an inhibitory concentration at the 90% level, which refers to growth in some studies and to a panel of isolates in others. A high value points to weaker potency. One may read the IC50 as the point on the concentration scale where inhibition reaches its midpoint. Broadly, the MIC is the smallest concentration in the dilution series that meets the test's criterion for growth inhibition. A low value points to inhibition by little substance.

For series [1], the system named is Staphylococcus aureus. The series can be described thus: Antimicrobial activity against methicillin-susceptible Staphylococcus aureus by microdilution method. In kind it is functional. On the technique in general: In broth dilution the organism is exposed to a series of concentrations in liquid medium.
For series [2], the system named is Staphylococcus aureus. The series is described as follows: Antimicrobial activity against methicillin-resistant Staphylococcus aureus by microdilution method. Format: functional.
Series [3] deals with Staphylococcus aureus. The series is described as follows: Antimicrobial activity against mupirocin- and methicillin-resistant Staphylococcus aureus by microdilution method. In kind it is functional.
For series [4], the system named is Streptococcus pyogenes. The series can be described thus: Antimicrobial activity against Streptococcus pyogenes by microdilution method. Format: functional.
The nature of series [5]: Cytotoxicity against human CCD-32Sk cells after 48 hrs by MTT assay. Format: cell-based. The following applies: Homo sapiens, CCD-32Sk, 48 h; read-out: IC50.
Series [6] concerns Staphylococcus aureus. The series can be described thus: Antimicrobial activity against Staphylococcus aureus 8235 by microdilution method. Format: functional.
Series [7] in a line: Therapeutic index, ratio of IC50 for human CCD-32Sk cells to MIC for Staphylococcus aureus 8235. In kind it is cell-based. The following applies: read-out: TI.
Series [8] concerns Staphylococcus aureus. The series is described as follows: Antimicrobial activity against Staphylococcus aureus isolate 8235 at >200 ug/ml by microdilution method in presence of 50 % human serum. Format: functional, organism-based.
The test system of series [9] is Staphylococcus aureus. The series is described as follows: Antimicrobial activity against methicillin-susceptible Staphylococcus aureus ATCC 29213 grown as biofilms by microdilution method. In kind it is functional.
The test system of series [10] is Staphylococcus epidermidis. The series can be described thus: Antimicrobial activity against Staphylococcus epidermidis RP62A grown as biofilms by microdilution method. In kind it is functional.
Series [11] deals with Staphylococcus aureus. The series is described as follows: Antimicrobial activity against methicillin-resistant Staphylococcus aureus ATCC 33591 by microdilution method. In kind it is functional.
The test system of series [12] is Staphylococcus aureus. The series can be described thus: Antimicrobial activity against methicillin-susceptible Staphylococcus aureus ATCC 29213 by microdilution method. In kind it is functional.
In series [13] the test system is Staphylococcus epidermidis. The series can be described thus: Antimicrobial activity against Staphylococcus epidermidis RP62A by microdilution method. Format: functional.
Series [14] deals with Staphylococcus aureus. The series can be described thus: Antimicrobial activity against Staphylococcus aureus ATCC 29213 infected BALB/c mouse at 2 % administered topically 4 hrs post infection twice a day for 5 days. In kind it is functional, organism-based.

≈ marks a conversion by molar mass, not a printed value. Calls of active or inactive are those of the source.

Turning to `C/C(=C\C(=O)OCCCCCCCCC(=O)O)C[C@@H]1OC[C@H](C[C@@H]2O[C@H]2[C@@H](C)[C@H](C)O)[C@@H](O)[C@H]1O` [MUPIROCIN], the MIC50 in series [1] came out at 0.8 µg/mL (≈ 1.6 µM); in series [2], 0.8 µg/mL (≈ 1.6 µM); in [3], 0.8 µg/mL (≈ 1.6 µM); in [4], 0.4 µg/mL (≈ 0.799 µM). The MIC90 stood at 0.8 µg/mL (≈ 1.6 µM) in series [1], 3.12 µg/mL (≈ 6.23 µM) in series [2], 0.8 µg/mL (≈ 1.6 µM) in series [3] and 0.4 µg/mL (≈ 0.799 µM) in series [4]. For the same compound, the IC50 in [5] is more than 20000 µg/mL. Also, the MIC stood at 12.5 µg/mL (≈ 25 µM) in series [6], 0.06 µg/mL (≈ 0.12 µM) in series [11], 0.1 µg/mL (≈ 0.2 µM) in series [12] and 0.12 µg/mL (≈ 0.24 µM) in series [13]. Also, in series [7], the selectivity ratio is more than 1600. Besides, in [8], the outcome was inactive. The MBEC in [9] and in series [10] was more than 400 µg/mL in each case. The MBIC in [9] and in series [10] was less than 0.2 µg/mL each time. The outcome in series [14] was Active.
